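Method: 48-hour compound exposure of cells in 96-well plates, five concentrations, linear interpolation of endpoints. Here, GI50 denotes the concentration required for 50% inhibition of growth.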 Activity calls are given as the source filed them. No stated cut-off is given here; in the data, active = GI50 up to about 1.1 µM and inactive = higher.
Tests used:
Assay in all cases: DTP human tumour cell line panel, 48 h
786-0 = system: 786-0
A549 = system: A549
ACHN = system: ACHN
BT-549 = system: BT-549
CAKI-1 = system: CAKI-1
COLO 205 = system: COLO 205
DU-145 = system: DU-145
EKVX = system: EKVX
HCC 2998 = system: HCC 2998
HCT-116 = system: HCT-116
HCT-15 = system: HCT-15
HOP-62 = system: HOP-62
IGROV-1 = system: IGROV-1
KM12 = system: KM12
LOX IMVI = system: LOX IMVI
M14 = system: M14
MCF7 = system: MCF7
MDA-MB-231 = system: MDA-MB-231
MDA-N = system: MDA-N
Malme-3M = system: Malme-3M
NCI-H226 = system: NCI-H226
NCI-H23 = system: NCI-H23
NCI-H460 = system: NCI-H460
NCI-H522 = system: NCI-H522
NCI/ADR-RES = system: NCI/ADR-RES
OVCAR-3 = system: OVCAR-3
OVCAR-5 = system: OVCAR-5
PC-3 = system: PC-3
RXF 393 = system: RXF 393
SF-268 = system: SF-268
SF-295 = system: SF-295
SF-539 = system: SF-539
SK-MEL-5 = system: SK-MEL-5
SK-OV-3 = system: SK-OV-3
SNB-19 = system: SNB-19
TK-10 = system: TK-10
UACC-257 = system: UACC-257
UACC-62 = system: UACC-62
UO-31 = system: UO-31
A498 = system: A498
HOP-92 = system: HOP-92
MDA-MB-435 = system: MDA-MB-435
MOLT-4 = system: MOLT-4
OVCAR-4 = system: OVCAR-4
OVCAR-8 = system: OVCAR-8
SK-MEL-2 = system: SK-MEL-2
SN12C = system: SN12C
SNB-75 = system: SNB-75
SW-620 = system: SW-620
T47D = system: T47D
CCRF-CEM = system: CCRF-CEM
HL-60 = system: HL-60
K562 = system: K562
RPMI-8226 = system: RPMI-8226
SK-MEL-28 = system: SK-MEL-28
SR = system: SR
U-251 = system: U-251

C=CCn1c(-c2ccccc2)cs/c1=N\C(P(=O)(O)O)P(=O)(O)O
GI50 (786-0): > 100 µM (inactive) | GI50 (A549): > 100 µM (inactive) | GI50 (ACHN): > 100 µM (inactive) | GI50 (BT-549): > 100 µM (inactive) | GI50 (CAKI-1): > 100 µM (inactive) | GI50 (COLO 205): > 100 µM (inactive) | GI50 (DU-145): > 100 µM (inactive) | GI50 (EKVX): > 100 µM (inactive) | GI50 (HCC 2998): > 100 µM (inactive) | GI50 (HCT-116): > 100 µM (inactive) | GI50 (HCT-15): > 100 µM | GI50 (HOP-62): > 100 µM (inactive) | GI50 (IGROV-1): > 100 µM (inactive) | GI50 (KM12): > 100 µM (inactive) | GI50 (LOX IMVI): > 100 µM (inactive) | GI50 (M14): > 100 µM (inactive) | GI50 (MCF7): > 100 µM (inactive) | GI50 (MDA-MB-231): > 100 µM (inactive) | GI50 (MDA-N): > 100 µM (inactive) | GI50 (Malme-3M): > 100 µM (inactive) | GI50 (NCI-H226): > 100 µM (inactive) | GI50 (NCI-H23): > 100 µM (inactive) | GI50 (NCI-H460): > 100 µM (inactive) | GI50 (NCI-H522): > 100 µM (inactive) | GI50 (NCI/ADR-RES): > 100 µM (inactive) | GI50 (OVCAR-3): > 100 µM (inactive) | GI50 (OVCAR-5): > 100 µM (inactive) | GI50 (PC-3): > 100 µM (inactive) | GI50 (RXF 393): > 100 µM (inactive) | GI50 (SF-268): > 100 µM (inactive) | GI50 (SF-295): > 100 µM (inactive) | GI50 (SF-539): > 100 µM (inactive) | GI50 (SK-MEL-5): > 100 µM (inactive) | GI50 (SK-OV-3): > 100 µM (inactive) | GI50 (SNB-19): > 100 µM (inactive) | GI50 (TK-10): > 100 µM (inactive) | GI50 (UACC-257): > 100 µM (inactive) | GI50 (UACC-62): > 100 µM (inactive) | GI50 (UO-31): > 100 µM (inactive)

CNc1ccc(C(=O)CC(O)CCC(C)C2OC(=O)CC(O)CC(=O)CC(O)CC(O)CC(O)CC(O)CC3(O)CC(O)C(C(=O)NCCN4CCOCC4)C(CC(OC4OC(C)C(O)C(N)C4O)\C=C/C=C\C=C/C=C/C=C/C=C\C=C/C2C)O3)cc1 (stereo not given)
GI50 (786-0): 1.01 µM (active) | GI50 (A498): 0.321 µM (active) | GI50 (BT-549): 1.64 µM (inactive) | GI50 (HCT-116): > 100 µM (inactive) | GI50 (HOP-92): > 100 µM (inactive) | GI50 (IGROV-1): 6.34 µM (inactive) | GI50 (KM12): 2.84 µM (inactive) | GI50 (MDA-MB-435): 1.56 µM (inactive) | GI50 (MDA-N): 0.701 µM (active) | GI50 (MOLT-4): 2.3 µM (inactive) | GI50 (Malme-3M): 0.267 µM (active) | GI50 (NCI-H226): 3.81 µM (inactive) | GI50 (NCI-H522): 0.493 µM (active) | GI50 (OVCAR-4): 2.74 µM (inactive) | GI50 (OVCAR-8): 4.23 µM (inactive) | GI50 (RXF 393): > 100 µM (inactive) | GI50 (SF-539): 16 µM (inactive) | GI50 (SK-MEL-2): 6.43 µM (inactive) | GI50 (SN12C): 0.417 µM (active) | GI50 (SNB-19): > 100 µM (inactive) | GI50 (SNB-75): > 100 µM (inactive) | GI50 (SW-620): > 100 µM (inactive) | GI50 (T47D): > 100 µM (inactive) | GI50 (TK-10): 1.52 µM (inactive) | GI50 (UACC-257): 0.537 µM (active) | GI50 (UACC-62): 1.68 µM (inactive) | GI50 (UO-31): 0.404 µM (active)

C[Si](C)(C)C1=C2C(=O)c3ccccc3C(=O)C2=C([Si](C)(C)C)[C@@H]2CCCC[C@H]12
GI50 (A498): > 100 µM (inactive) | GI50 (A549): > 100 µM (inactive) | GI50 (ACHN): > 100 µM (inactive) | GI50 (BT-549): > 100 µM (inactive) | GI50 (CAKI-1): > 100 µM (inactive) | GI50 (CCRF-CEM): > 100 µM (inactive) | GI50 (COLO 205): > 100 µM (inactive) | GI50 (DU-145): > 100 µM (inactive) | GI50 (EKVX): > 100 µM (inactive) | GI50 (HCC 2998): > 100 µM (inactive) | GI50 (HCT-116): > 100 µM (inactive) | GI50 (HCT-15): > 100 µM | GI50 (HL-60): > 100 µM (inactive) | GI50 (HOP-92): > 100 µM (inactive) | GI50 (IGROV-1): > 100 µM (inactive) | GI50 (K562): > 100 µM (inactive) | GI50 (LOX IMVI): > 100 µM (inactive) | GI50 (M14): > 100 µM (inactive) | GI50 (MCF7): > 100 µM (inactive) | GI50 (MDA-MB-231): > 100 µM (inactive) | GI50 (MDA-MB-435): > 100 µM (inactive) | GI50 (MDA-N): > 100 µM (inactive) | GI50 (MOLT-4): > 100 µM (inactive) | GI50 (Malme-3M): > 100 µM (inactive) | GI50 (NCI-H23): > 100 µM (inactive) | GI50 (NCI-H460): > 100 µM (inactive) | GI50 (NCI-H522): > 100 µM (inactive) | GI50 (OVCAR-3): > 100 µM (inactive) | GI50 (OVCAR-4): 95.3 µM (inactive) | GI50 (OVCAR-5): > 100 µM (inactive) | GI50 (PC-3): > 100 µM (inactive) | GI50 (RPMI-8226): > 100 µM (inactive) | GI50 (RXF 393): > 100 µM (inactive) | GI50 (SF-295): > 100 µM (inactive) | GI50 (SF-539): > 100 µM (inactive) | GI50 (SK-MEL-28): > 100 µM (inactive) | GI50 (SK-MEL-2): > 100 µM (inactive) | GI50 (SK-MEL-5): > 100 µM (inactive) | GI50 (SK-OV-3): > 100 µM (inactive) | GI50 (SN12C): > 100 µM (inactive) | GI50 (SNB-19): > 100 µM (inactive) | GI50 (SR): > 100 µM (inactive) | GI50 (SW-620): > 100 µM (inactive) | GI50 (T47D): > 100 µM (inactive) | GI50 (TK-10): > 100 µM (inactive) | GI50 (U-251): > 100 µM (inactive) | GI50 (UACC-257): > 100 µM (inactive) | GI50 (UACC-62): > 100 µM (inactive) | GI50 (UO-31): > 100 µM (inactive)

— ChEMBL document CHEMBL1201862, “PubChem BioAssay data set” (2004)
